Laboratory results: patent US10011573B2, “Human androgen receptor DNA-binding domain (DBD) compounds as therapeutics and methods for their use” (The University of British Columbia, priority 2014, dated 2018)
Numbering of substitutions follows the chain as printed.

Tests used:
[1] = target: T1, AR hormone binding site (recombinant wild type LBD) (Rattus norvegicus, UniProt P15207); test: Androgen displacement assay (Polar Screen Androgen Receptor Competitor Green Assay Kit); conditions: fluorescence polarization
T1 construct: displace DHT from the ABS site of recombinant wild type LBD
T1 sequence (P15207 651-882 limits assumed): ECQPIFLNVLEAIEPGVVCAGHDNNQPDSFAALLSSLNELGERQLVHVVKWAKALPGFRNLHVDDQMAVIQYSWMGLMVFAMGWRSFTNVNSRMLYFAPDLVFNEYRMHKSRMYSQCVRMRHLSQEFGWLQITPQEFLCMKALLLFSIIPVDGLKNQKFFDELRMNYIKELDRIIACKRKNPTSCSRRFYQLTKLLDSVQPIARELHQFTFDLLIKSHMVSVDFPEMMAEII
Experimental: 5. Androgen displacement assay: The androgen displacement was assessed with the Polar Screen Androgen Receptor Competitor Green Assay Kit as per the instructions of the manufacturer (Lack, Axerio-Cilies et al. 2011).
The ability of the above chemicals to displace DHT from the ABS site of recombinant wild type LBD was measured using a fluorescent polarization assay (PolarScreen™, Life Technologies) at various concentrations.

androgen receptor (AR) = target: T2, androgen receptor (AR) (Homo sapiens, UniProt P10275, T878A); test: eGFP cellular AR transcription assay (LNCaP eGFP cells, LN-ARR2PB-eGFP); conditions: for anti-AR activity (AR transcriptional inhibition) in words: LNCaP (T877A AR); for partial agonistic effect: LNCaP eGFP cells
T2 sequence (P10275 1-920 T878A): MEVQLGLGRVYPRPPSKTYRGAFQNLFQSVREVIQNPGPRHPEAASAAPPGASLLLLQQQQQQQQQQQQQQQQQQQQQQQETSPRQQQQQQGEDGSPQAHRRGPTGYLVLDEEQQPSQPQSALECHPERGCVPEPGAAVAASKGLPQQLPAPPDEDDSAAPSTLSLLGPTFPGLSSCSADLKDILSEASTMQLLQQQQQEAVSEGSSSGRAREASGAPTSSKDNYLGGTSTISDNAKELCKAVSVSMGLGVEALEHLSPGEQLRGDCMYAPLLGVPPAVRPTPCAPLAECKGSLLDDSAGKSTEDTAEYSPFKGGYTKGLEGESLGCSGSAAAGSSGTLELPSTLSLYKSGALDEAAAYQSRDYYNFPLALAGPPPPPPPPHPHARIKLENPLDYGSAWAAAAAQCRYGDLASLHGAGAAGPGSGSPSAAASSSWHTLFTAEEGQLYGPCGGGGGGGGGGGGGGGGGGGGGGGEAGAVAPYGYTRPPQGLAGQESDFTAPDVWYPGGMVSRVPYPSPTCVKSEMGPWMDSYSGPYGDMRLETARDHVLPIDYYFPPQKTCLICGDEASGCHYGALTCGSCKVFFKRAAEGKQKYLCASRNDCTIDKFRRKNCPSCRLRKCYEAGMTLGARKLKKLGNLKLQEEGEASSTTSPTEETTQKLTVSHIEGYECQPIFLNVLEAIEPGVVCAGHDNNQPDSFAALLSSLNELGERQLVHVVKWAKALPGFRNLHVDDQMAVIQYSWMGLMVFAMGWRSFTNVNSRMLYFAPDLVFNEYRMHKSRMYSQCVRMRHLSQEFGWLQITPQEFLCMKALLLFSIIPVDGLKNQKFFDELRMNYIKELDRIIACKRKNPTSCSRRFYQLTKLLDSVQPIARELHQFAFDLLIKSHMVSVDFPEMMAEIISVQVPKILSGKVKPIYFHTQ

PSA [2] = test: PSA measurements, LNCaP cells, 1 nM R1881, 2 days; type: cell-based, human
Experimental: Following the incubation period, 150 μl of the media was taken from each well, and PSA levels were quantified using a Cobas e411 analyzer (Roche Applied Science™) according to the manufacturer's instructions. The same instrument was used to analyze serum PSA from mice during the in vivo analysis.

FKBP5 [3] = test: Western blot FKBP5 protein in R1-D567 cells; type: cell-based, human
Experimental: (§1) Cell lysates (40 μl) from luciferase assays (96-well plate) were separated on a 10% SDS-polyacrylamide mini gel. Protein was transferred to methanol-charged PVDF membranes and probed with anti-AR441 (mouse, Sigma™) monoclonal primary antibody. Blots were also probed with polyclonal anti-actin (rabbit, Sigma™) to show equal loading and polyclonal anti-PARP/anti-cleaved PARP (rabbit, Sigma™) to test for induction of apoptosis. Lysates from CWR-R1 cells were additionally probed with polyclonal anti-FKBP5 (rabbit, Sigma™) following 2 days of incubation with compounds.

ER-α = target: T3, ER-α (Homo sapiens, UniProt P03372); test: Estrogen-response element-luciferase assay in MCF-7 cells; type: cell-based
T3 construct: endogenous in cells; host or cells: MCF-7 with ERE-luciferase reporter
Experimental: (§2) 9. Transient Transfection: The PC3/MCF7 cells were seeded into a 96-well plate (2,000 cells/well). After 24 hrs, the wild-type AR (50 ng/well)/AR mutants and AR3TK-luciferase plasmids (1:3) were co-transfected into PC3 cells or ERE-luciferase (50 ng/well) was transfected into MCF7 cells using transfection reagent TT20. 24 hrs after the transfection, the cells were treated with the compounds at various concentrations. And 24 hrs later, the cells were lysed and the reading was taken using a luminometer.

PSA [4] = test: Prostate-specific antigen (PSA) assay, secreted PSA from the eGFP assay plates; type: cell-based, human; conditions: Homo sapiens
Experimental: 3. Prostate-specific antigen (PSA) assay: The evaluation of PSA levels secreted into the media was performed in parallel to the eGFP assay using the same plates. After cells were incubated for 3 days, 150 μl of the media was taken from each well, and added to 150 μl of PBS.

FKBP5 [5] = test: Western blot FKBP5 protein in R1-AD1 cells; type: cell-based, human
Experimental: as §1

AR DBD = AR DBD (Homo sapiens, UniProt P10275)
[6] = target: T4, AR(1-653) truncation mutant (Homo sapiens, UniProt P10275); conditions: 25 μM, PC3 cells, ARR3tk-luciferase; cited from earlier work
T4 construct: host or cells: PC3 co-transfected with ARR3tk-luciferase

endogenous wild type AR = test: ARR3tk-luciferase assay in R1-AD1 cells; type: cell-based, human; conditions: 0.1 nM R1881
T877A-AR mutant = target: T5, T877A-AR mutant (Homo sapiens, UniProt P10275, T878A); test: Luciferase reporter assay in PC3 cells, T877A-AR; type: cell-based; conditions: presence and absence of R1881
T5 construct: expressed in transfected cells; host or cells: PC3
Experimental: as §2

full-length human AR = target: T6, full-length human AR (Homo sapiens, UniProt P10275); test: ARR3tk-luciferase reporter assay in PC3 cells, wild-type AR; type: cell-based
T6 construct: expressed in transfected cells; host or cells: PC3 (AR-negative human prostate cancer cells)
T6 sequence (P10275 1-920): T2 sequence (P10275 1-920 T878A) with A878T
Experimental: as §2

[7] = eGFP IC50, LNCaP eGFP cells, 0.1 nM R1881

T3 sequence (P03372 whole entry): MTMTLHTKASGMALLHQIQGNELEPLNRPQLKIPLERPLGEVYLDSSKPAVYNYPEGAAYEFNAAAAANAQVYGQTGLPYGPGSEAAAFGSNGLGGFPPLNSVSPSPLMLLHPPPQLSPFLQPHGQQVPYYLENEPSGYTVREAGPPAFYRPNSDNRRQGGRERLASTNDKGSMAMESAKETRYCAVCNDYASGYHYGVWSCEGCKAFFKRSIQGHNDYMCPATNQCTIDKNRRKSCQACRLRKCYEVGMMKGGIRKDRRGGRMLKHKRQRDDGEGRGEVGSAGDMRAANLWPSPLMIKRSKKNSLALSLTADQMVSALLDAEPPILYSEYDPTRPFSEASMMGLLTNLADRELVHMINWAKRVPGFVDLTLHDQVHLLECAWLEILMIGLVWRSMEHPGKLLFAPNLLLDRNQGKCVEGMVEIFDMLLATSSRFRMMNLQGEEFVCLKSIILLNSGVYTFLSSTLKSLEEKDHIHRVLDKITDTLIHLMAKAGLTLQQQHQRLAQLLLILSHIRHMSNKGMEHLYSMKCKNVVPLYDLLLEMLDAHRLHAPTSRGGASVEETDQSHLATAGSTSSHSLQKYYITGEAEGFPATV

| Androgen Displacement IC50 [1] | anti-AR activity (AR transcriptional inhibition) in words (androgen receptor (AR)) | partial agonistic effect (androgen receptor (AR)) | IC50 (androgen receptor (AR); eGFP IC50 (μM), Series 1) | IC50 (androgen receptor (AR); [7]) | SMILES | further results |
| --- | --- | --- | --- | --- | --- | --- |
| – | – | – | 0.03 µM | 0.035 µM | COc1c(F)cccc1-c1csc(N2CCOCC2)n1 [Compound 14368] | IC50 [1]: 31300 nM; AR transcriptional activity in the absence of R1881 (androgen receptor (AR); LNCaP eGFP cells without R1881): vigorously enhance AR transcriptional activity; agonistic effect at high concentrations (endogenous wild type AR): not observed; concentration inducing transcriptional activation of T877A AR mutant (T877A-AR mutant): higher than 0.4 μM; IC50 (PSA [4]; Series 1): 130 nM; AR transcription, wild type AR, presence of R1881 (full-length human AR): inhibited by 14368 in a dose response manner; AR transcriptional activity, wild type AR, absence of androgen (full-length human AR): only a basal level of transcriptional activity |
| low displacement | maintained good potency | no undesired partial agonistic effect | – | 0.16 ± 0.03 µM | c1cncc(-c2csc(N3CCOCC3)n2)c1 [Compound 14439] | inhibition at 3 µM (androgen receptor (AR); LNCaP, read-out: % Inhibition (3 μM)): 81% |

Further lines, the compound ahead of its results:

| SMILES | Androgen Displacement IC50 [1] | anti-AR activity (AR transcriptional inhibition) in words (androgen receptor (AR)) | partial agonistic effect (androgen receptor (AR)) | IC50 (androgen receptor (AR); eGFP IC50 (μM), Series 1) | IC50 (androgen receptor (AR); [7]) | further results |
| --- | --- | --- | --- | --- | --- | --- |
| c1ccc(-c2csc(N3CCOCC3)n2)nc1 [Compound 14436] | No displacement | maintained good potency | no undesired partial agonistic effect | 2.51 µM | 4.53 ± 0.26 µM | – |
| c1cc(-c2csc(N3CCOCC3)n2)ccn1 [Compound 14435] | No displacement | maintained good potency | no undesired partial agonistic effect | 2.61 µM | 3.87 ± 1.26 µM | – |
| CNC(=O)c1ccc(N2C(=S)N(c3ccc(C#N)c(C(F)(F)F)c3)C(=O)C2(C)C)cc1F [enzalutamide, reference compound] | – | – | – | – | – | IC50 secreted PSA (PSA [2]): sub-micromolar; FKBP5 protein expression, R1-D567 cells (FKBP5 [3]): only affected R1-AD1 cells; effect on ER transcriptional activity (ER-α): considerable cross-reactivity; IC50 (PSA [4]; LNCaP eGFP cells, R1881, secreted PSA): 120 nM; FKBP5 protein expression, R1-AD1 cells (FKBP5 [5]): only affected R1-AD1 cells |
| COc1c(Cl)cc(-c2csc(N3CCOCC3)n2)cc1Cl [Compound 14288] | – | – | – | – | – | digestion of AR DBD by trypsin in presence of compound (AR DBD): not digested; % Inhibition (3 μM) (androgen receptor (AR)): 35.89% |
| CC(C)(c1ccc(OCC(O)CO)cc1)c1ccc(OCC(O)CCl)cc1 (stereo not drawn) [EPI-001] | – | – | – | – | – | inhibition of AR(1-653) truncation mutant [6]: ~80% |
| c1cc(-c2csc(N3CCOCC3)n2)cs1 [Compound 14404, 4-(4-(thiophen-3-yl)thiazol-2-yl)morpholine] | No displacement | maintained good potency | no undesired partial agonistic effect | 0.26 µM | 0.27 ± 0.02 µM | IC50 (PSA [4]; Series 1): 220 nM |
